Assay results reported in PubChem BioAssay (NCI).
“And” between values parts separate entries of the source, which are not always exact repeats. Equal values may be shown once.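 Interpolation was linear, between the two tested concentrations surrounding the appropriate level; five concentrations were tested over 48 hours in 96-well plates. GI50: concentration for 50% inhibition of growth. TGI marks complete inhibition of growth.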

Key:
Assay in all cases: DTP human tumour cell line panel, 48 h
ACHN renal = test system: ACHN renal
EKVX NSCLC = test system: EKVX NSCLC
HCT-116 colon = test system: HCT-116 colon
MDA-N = test system: MDA-N
MOLT-4 leukemia = test system: MOLT-4 leukemia
NCI-H226 lung = test system: NCI-H226 lung
SF-295 CNS = test system: SF-295 CNS
SN12C renal = test system: SN12C renal
SW-620 colon = test system: SW-620 colon
TK-10 renal = test system: TK-10 renal

SMILES	TGI (ACHN renal)	TGI (EKVX NSCLC)	TGI (HCT-116 colon)	TGI (MDA-N)	TGI (MOLT-4 leukemia)	TGI (NCI-H226 lung)	TGI (SF-295 CNS)	TGI (SN12C renal)	TGI (SW-620 colon)	TGI (TK-10 renal)	GI50 (ACHN renal)	GI50 (NCI-H226 lung)	GI50 (SF-295 CNS)	GI50 (SW-620 colon)	GI50 (EKVX NSCLC)	GI50 (MDA-N)	GI50 (MOLT-4 leukemia)	GI50 (SN12C renal)
COc1cc(C2S/C(=C/c3ccccc3)C(=O)N2c2ccc(Cl)cc2)cc(OC)c1OC (stereo unspecified)	> 100 µM	> 100 µM	> 100 µM	34.3 µM	> 81.5 µM	> 100 µM	> 100 µM	> 100 µM	> 100 µM	> 100 µM								
C=CCOn1c(C=C)nc2c(C)cccc21	7.15 µM	29.2 µM	4.97 µM	11.4 µM	17 µM	16.9 µM	21 µM	13.2 µM	11.2 µM	8.05 µM								
COc1ccc(C[C@H]2COC(=O)[C@@H]2Cc2cc(OC)c(OC)c(OC)c2)cc1OC	> 100 µM	> 100 µM	> 100 µM	> 100 µM	> 100 µM	> 100 µM	> 100 µM	> 100 µM	> 100 µM	> 100 µM								
C=C(CCC(C(=O)O)C1CCC2(C)C3=C(CCC12C)C1(C)CCC(O)C(C)(C)C1CC3)C(C)C (stereo unspecified)	> 100 µM	> 100 µM	> 100 µM	> 100 µM	> 100 µM	96.3 µM	> 100 µM	> 100 µM	> 100 µM	> 100 µM								
CSc1nc(Br)nc2c1ncn2C1CC(Oc2ccc(C)cc2)C(COc2ccc(C)cc2)O1 (stereo unspecified)	> 100 µM	> 100 µM	> 100 µM	> 100 µM	> 100 µM	> 100 µM	> 100 µM	> 100 µM	> 100 µM	> 100 µM								
Cc1nn(C(=O)c2ccccc2O)c2c1C(c1ccc(O)cc1)SC(N)=N2 (stereo unspecified)	> 10 µM	> 10 µM	> 3.32 µM	> 10 µM	> 10 µM	> 6.22 µM	> 10 µM	> 10 µM	> 10 µM	> 10 µM								
O=C1N2CCc3c([nH]c4ccccc34)C23CC2CCCC12S3 (stereo unspecified)	> 50 µM	> 50 µM	> 50 µM	> 50 µM	> 50 µM	> 50 µM	> 50 µM	> 50 µM	> 50 µM	> 50 µM								
CC(C)CC1c2[nH]c3ccccc3c2C[C@H]2C(=O)NC(COC(C)(C)C)C(=O)N12 (stereo partly specified)	88.4 µM	71.7 µM	37.9 µM	51.8 µM	57.9 µM	93 µM	35 µM	47.9 µM	> 100 µM	56.3 µM								
Cc1ccc(C2=Nn3c(nc4sc(-c5ccccc5)cc4c3=O)SC2)cc1	> 100 µM	> 100 µM	> 100 µM	> 100 µM	> 100 µM	> 100 µM	> 100 µM	> 100 µM	> 100 µM	> 100 µM								
CSC1(SC)CCCCCCCCCCC1	> 100 µM	> 100 µM	31.4 µM	> 100 µM	> 100 µM	> 100 µM	97.1 µM	> 100 µM	> 100 µM	> 100 µM								
CN1C(=O)[C@@]2(C=CC3(CC2)OCCO3)c2ccccc21	> 50 µM	> 50 µM	> 50 µM	> 50 µM	> 50 µM	> 50 µM	> 50 µM	> 50 µM	> 50 µM	> 50 µM								
Clc1ncc(C(Cl)(Cl)Cl)nc1-c1ccccc1	3.19 µM	6.02 µM	3.52 µM	3.82 µM	28.9 µM	39.4 µM	13.5 µM	8.57 µM	> 100 µM	5.39 µM								
N#Cc1nnc2c3c(-c4ccc(Cl)cc4)c(C#N)c(=O)[nH]c3nn2c1N	21.9 µM	30.9 µM	15.9 µM	13.4 µM	14.1 µM	32.6 µM	23.9 µM	6.37 µM	32 µM	> 100 µM								
CN(C)CCn1c(=O)c2ccc(NCCNCCO)c3c(=O)c4cc(O)ccc4n(c1=O)c23	8.64 µM	14.3 µM	3.15 µM	7.49 µM	1.17 µM	5.71 µM	21.1 µM	5.15 µM	11.2 µM	21.1 µM								
C=CCN1C(=O)/C(=C/c2ccc(Cl)cc2)N=C1SC1OC(COC(C)=O)C(OC(C)=O)C(OC(C)=O)C1OC(C)=O (stereo unspecified)	> 100 µM	> 100 µM	87.5 µM	> 100 µM	> 100 µM and 43.2 µM	24.5 µM and 78 µM	54 µM and > 100 µM	> 100 µM	> 100 µM	> 100 µM	14.5 µM and 37.4 µM	9.63 µM and 21.9 µM	18.2 µM and 49.9 µM	> 59.6 µM and 11.1 µM				
CC(=O)OCC1OC(n2c3c(c(-c4ccco4)c(C#N)c2=S)CCCC3)C(OC(C)=O)C(OC(C)=O)C1OC(C)=O (stereo unspecified)	> 31.6 µM	29.8 µM	> 31.6 µM	> 31.6 µM	> 31.6 µM	> 31.6 µM	21.5 µM	> 31.6 µM	> 100 µM	24.8 µM								
COc1cc(O)c2c(c1)C(O)C(O)CC1OC1C(=O)/C=C/CC(C)OC2=O (stereo unspecified)	17 µM	35.8 µM	12.2 µM	21.6 µM	17.2 µM	33.9 µM	46.6 µM	11.8 µM	6.84 µM	17.5 µM								
COC1(OC)N=C(N)C2(C#N)/C(=N/N(C)C)CC(C)C12C#N (stereo unspecified)	> 100 µM	> 100 µM	> 100 µM	> 100 µM	> 100 µM	> 100 µM	> 100 µM	> 100 µM	> 100 µM	> 100 µM								
CC(=O)Nc1ncc2c(n1)-c1ccccc1OC2	> 100 µM	> 100 µM	> 100 µM	> 100 µM	> 100 µM	> 100 µM	> 100 µM	> 100 µM	> 100 µM	> 100 µM								

SMILES	TGI (ACHN renal)	TGI (EKVX NSCLC)	TGI (HCT-116 colon)	TGI (MDA-N)	TGI (MOLT-4 leukemia)	TGI (NCI-H226 lung)	TGI (SF-295 CNS)	TGI (SN12C renal)	TGI (SW-620 colon)	TGI (TK-10 renal)	GI50 (ACHN renal)	GI50 (NCI-H226 lung)	GI50 (SF-295 CNS)	GI50 (SW-620 colon)	GI50 (EKVX NSCLC)	GI50 (MDA-N)	GI50 (MOLT-4 leukemia)	GI50 (SN12C renal)
O=C(O)c1ccccc1-c1ccccc1C(=O)c1ccccc1	> 100 µM	> 100 µM	> 100 µM	> 100 µM	> 100 µM	> 100 µM	> 100 µM	> 100 µM	> 100 µM	> 100 µM								
O=C(O)CNC(=O)c1cccc2c(=O)c3ccccc3[nH]c12	> 100 µM	> 100 µM	> 100 µM	> 100 µM	> 100 µM	> 100 µM	> 100 µM	> 100 µM	> 100 µM	> 100 µM								
COc1ccccc1OC/C(N=Cc1ccncc1)=N/NC(=O)c1ccncc1	> 100 µM	> 100 µM	> 100 µM	> 100 µM	> 100 µM	> 100 µM	> 100 µM	> 100 µM	> 100 µM	> 100 µM								
COc1ccc(C=O)cc1Oc1ccc(C[C@H]2c3c(cc(OC)c4c3Oc3cc5c(cc3O4)CCN(C)C5=O)CCN2C)cc1	18.4 µM	22.3 µM	15 µM	18.2 µM	21.7 µM	16.8 µM	16.3 µM	43 µM	30.9 µM	18.4 µM								
COC(=O)C(Cc1ccccc1)NC(=O)CCCNC(=O)OCc1ccccc1 (stereo unspecified)	> 100 µM	> 100 µM	> 100 µM	> 100 µM	> 100 µM	> 100 µM	> 100 µM	> 100 µM	> 100 µM	> 100 µM								
CC(C)[Si]1(C(C)C)OCC2OC(n3cnc4c(N)ncnc43)C(N)C2O[Si](C(C)C)(C(C)C)O1 (stereo unspecified)	21.6 µM	> 66.9 µM	16.9 µM	24.3 µM	7.84 µM	25.8 µM	21.5 µM	27.9 µM	> 45.4 µM	28.9 µM								
O=C(O)c1ccc(Nc2cnc3ccc(C(F)(F)F)cc3n2)cc1	32.6 µM	> 100 µM	37.6 µM	37.3 µM	44.5 µM	29.4 µM	45.3 µM	90.2 µM	46.6 µM	44.8 µM								
O=C(Cc1nc2ccc([N+](=O)[O-])cc2[nH]c1=O)C(=O)Nc1cc(Cl)c(Cl)cc1Cl	> 100 µM	> 100 µM	> 100 µM	> 100 µM	> 100 µM	> 100 µM	> 100 µM	> 100 µM	> 100 µM	> 100 µM								
COc1cc2c(cc1OC)C1Cc3ccccc3CN1CCC2 (stereo unspecified)	> 100 µM	> 100 µM	> 100 µM	> 100 µM	> 100 µM	> 100 µM	> 100 µM	> 100 µM	> 100 µM	> 100 µM								
CCC1(O)CN(CCOC)[C@H]2C[C@@H]1C(=O)c1[nH]c3ccccc3c12 (stereo partly specified)	> 100 µM	> 100 µM	> 100 µM	> 100 µM	> 100 µM	> 100 µM	> 100 µM	> 100 µM	> 100 µM	> 100 µM								
CCOP(=O)(OCC)C(F)(F)CC1CCCCC1	> 10 µM	> 10 µM	> 10 µM	> 10 µM	> 10 µM	> 10 µM	> 10 µM	> 10 µM	> 10 µM	> 10 µM								
CN1C/C(=C\c2ccccc2[N+](=O)[O-])C(=O)/C(=C/c2ccccc2[N+](=O)[O-])C1	1.46 µM and 0.628 µM	13.1 µM and 11 µM	0.546 µM and 0.415 µM	2.91 µM and 1.16 µM	1.02 µM and 0.572 µM	16.3 µM	13.7 µM and 7 µM	4.88 µM and 2.22 µM	0.886 µM and 0.603 µM	2.42 µM and 2.17 µM	0.532 µM and 0.228 µM		5.62 µM and 2.46 µM	0.292 µM	2.94 µM and 0.554 µM	0.783 µM and 0.298 µM	0.308 µM	1.98 µM and 0.809 µM
c1csc(-c2ccc(-c3ccc(-c4cccs4)s3)s2)c1	> 100 µM	> 100 µM	> 100 µM	> 100 µM	> 100 µM	> 100 µM	> 100 µM	> 100 µM	> 100 µM	> 100 µM								
CCOC(=O)Cc1nc2c(=O)[nH]cnc2n1C1OC(COC(C)=O)C(OC(C)=O)C1OC(C)=O (stereo unspecified)	> 100 µM	> 100 µM	> 100 µM	> 100 µM	> 100 µM	> 100 µM	> 100 µM	> 100 µM	> 100 µM	> 100 µM								
COC(=O)CNC(=O)/C=C/[C@H](O[Si](C)(C)C(C)(C)C)[C@H](/C=C/C(=O)NCC(=O)OC)O[Si](C)(C)C(C)(C)C	> 25 µM	> 25 µM	> 25 µM	> 25 µM	> 25 µM	> 25 µM	> 25 µM	> 25 µM	> 25 µM	> 25 µM								
CN(C)CCNC(=O)c1cccc2c(NC(CS)C(=O)O)c3ccccc3nc12 (stereo unspecified)	59.8 µM	39.3 µM	> 100 µM	20 µM	44.3 µM	69.2 µM	28.9 µM	24 µM	> 100 µM	> 100 µM								
C/C(=N\O)c1ccc(Nc2c3ccccc3nc3occc23)cc1	> 50 µM	> 50 µM	2.52 µM	> 50 µM	> 21.3 µM	> 25.9 µM	5.26 µM	> 50 µM	> 50 µM	25.4 µM								
C[C@@H](C[C@@H](O)[C@H](O)C(C)(C)O)[C@H]1CC=C2[C@]3(C)[C@H](O)C[C@H]4C(C)(C)[C@H](O)CC[C@]4(C)[C@H]3CC[C@@]21C	27.4 µM	26.1 µM	34.7 µM	29.5 µM	29.6 µM	41.1 µM	28.6 µM	31 µM	32.3 µM	32.4 µM								
O=C(NCCCCl)c1c(O)c2ccccc2[nH]c1=O	> 100 µM	> 100 µM	> 100 µM	> 100 µM	> 100 µM	> 100 µM	> 82.5 µM	> 100 µM	> 100 µM	> 100 µM								
